PubChem BioAssay (NCI)
Values joined by “and” are separate entries in the source; they are usually repeats but may differ in a detail not shown here. Identical values can stand only once.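 96-well plates; 48 h exposure; 5 concentrations. Endpoints by linear interpolation between flanking doses. Not reached: highest tested concentration assigned. GI50: concentration for 50% inhibition of growth. TGI: total growth inhibition.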

Assays:
Experiment in all cases: NCI anticancer screen, dose series, 48 h
[1] = test system: LOX IMVI melanoma
[2] = test system: OVCAR-3 ovarian
[3] = test system: OVCAR-4 ovarian
[4] = test system: PC-3 prostate
[5] = test system: RXF 393 renal
[6] = test system: SF-295 CNS
[7] = test system: SK-MEL-5 melanoma
[8] = test system: SNB-75 CNS
[9] = test system: U251 CNS
[10] = test system: UACC-257 melanoma
[11] = test system: UACC-62 melanoma

Structure (SMILES)	TGI [1] [µM]	TGI [2]	TGI [3]	TGI [4] [µM]	TGI [5]	TGI [6] [µM]	TGI [7] [µM]	TGI [8]	TGI [9] [µM]	TGI [10]	TGI [11]	GI50 [2]	GI50 [6]	GI50 [7]	GI50 [9]	GI50 [10]	GI50 [1] [µM]	GI50 [4] [µM]	GI50 [8] [µM]	GI50 [11] [µM]
C=CCN(CC=C)Cn1c(=S)sc2ccccc21	47.1	> 100 µM	> 100 µM	> 100	> 100 µM	> 100	> 100	> 100 µM	> 100	> 100 µM	> 100 µM									
COc1ccc(Nc2c(C#N)c3n(c4ccccc24)c2ccccc2[n+]3C)cc1OC	7.23	11 µM	32.5 µM	8.38	9.46 µM	11	15.5	9.52 µM	17.9	17 µM	12.5 µM									
O=c1c2ccccc2[nH]c(=S)n1-c1ccc(N=Nc2cccc3c(O)cccc23)cc1	> 100	> 100 µM	> 100 µM	> 100	> 100 µM	> 100	> 100	> 100 µM	> 100	> 100 µM	68 µM									
CC[C@@H]1CC[C@@H]2[C@H](CC[C@]3(C)[C@@H](O)CC[C@@H]23)[C@H]1C(=O)O	> 100	> 100 µM	> 100 µM	> 100	> 100 µM	> 100	> 100	> 100 µM	> 100	> 100 µM	> 100 µM									
COc1ccc(-c2c(C#N)c(S)n(C3OC(COC(C)=O)C(OC(C)=O)C(OC(C)=O)C3OC(C)=O)c(=O)c2C#N)cc1 (stereo not drawn)	> 100	> 100 µM and 61.6 µM	> 100 µM and 77.6 µM	> 100	71.7 µM and 73 µM	> 100	> 100	60.6 µM and 89 µM	> 100	> 100 µM and 42 µM	97.9 µM and 61.9 µM	> 100 µM and 23.8 µM	36.1 µM and 87.1 µM	60.7 µM and 29.3 µM	36.8 µM and 75.2 µM	> 100 µM and 19.8 µM				
CC1(C)CC2(C)CC1CC2O (stereo not drawn)	> 100	> 100 µM	> 100 µM	> 100	> 100 µM	> 100	> 100	> 100 µM	> 100	> 100 µM	> 100 µM									
COc1ncc(C=C(C#N)C#N)c(OC)n1	> 100	> 100 µM	> 100 µM	> 100	> 100 µM	> 100	> 100	> 100 µM	> 100	57.8 µM	> 100 µM									
CCN(CC)CCOC(c1cc(OC)ccc1OC)c1ccc2n1-c1ccccc1OC2 (stereo not drawn)	23.6	31 µM	31.9 µM	27.4	21.4 µM	23.9	22.2	17.3 µM	28.1	30.6 µM	7.75 µM									
Cc1sc2nc3n(c(=O)c2c1C)N=CN(c1ccccc1)C3	> 100	> 100 µM	> 100 µM	> 100	> 100 µM	> 100	> 100	> 100 µM	> 100	> 100 µM	> 100 µM									
CCOC(=O)c1cc(C2(O)CCN(Cc3ccccc3)C2=O)c(-c2cc(C)no2)[nH]1 (stereo not drawn)	> 100	> 100 µM	> 100 µM	> 100	65.7 µM	78.4	> 100	85.8 µM	> 100	> 100 µM	> 100 µM									
CC(=O)NC1C(OCc2ccccc2)OC(CO)C(O)C1OCC(=O)N[C@@H](C)C(=O)N[C@H](CCC(=O)NCCNCCNc1c2ccccc2nc2cccc([N+](=O)[O-])c12)C(N)=O (stereo partly drawn)	61.9	> 100 µM	40.2 µM	73	64 µM	> 100	39.5	> 100 µM	> 100	43 µM	35.2 µM									
Clc1nc(Cl)nc(NC23CC4CC(CC(C4)C2)C3)n1	26.9	37.7 µM	39.2 µM	> 49.6	32.1 µM	45.9	26.6	36.5 µM	30.5	42.3 µM	35.1 µM									
Cc1ccc(N=Nc2c3c(c(O)c4ccccc24)CCC(C)(C)O3)cc1	28.6	62.4 µM	44.5 µM	> 100	> 100 µM	28.8	15.7	36 µM	> 100	23 µM	28.1 µM									
CC(C)(C)OC(=O)NCCCCC(NC(=O)OCc1ccccc1)C(N)=O (stereo not drawn)	> 100	> 100 µM	> 100 µM	> 100	> 100 µM	> 100	> 100	> 100 µM	> 100	> 100 µM	> 100 µM									
CC(C)(C)OC(=O)NC(C)(C)C(=O)NCCC(=O)O	> 100	> 100 µM	> 100 µM	> 100	> 100 µM	> 100	> 100	> 100 µM	> 100	> 100 µM	> 100 µM									
O=C1CC(c2ccco2)C2(C(=O)NC(=O)NC2=O)C(c2ccco2)C1 (stereo not drawn)	> 75	> 75 µM	> 75 µM	> 75	> 75 µM	> 75	> 75	> 75 µM	> 75	> 75 µM	> 75 µM									
COc1ccc(-c2c(C#N)c(N)n(C3OC(CO)C(O)C(O)C3O)c(=S)c2C#N)cc1 (stereo not drawn)	> 100	> 100 µM	> 100 µM	> 100	> 100 µM	> 100	> 100	> 100 µM	> 100	> 100 µM	> 100 µM		64.7 µM and 22.3 µM							

Structure (SMILES)	TGI [1] [µM]	TGI [2]	TGI [3]	TGI [4] [µM]	TGI [5]	TGI [6] [µM]	TGI [7] [µM]	TGI [8]	TGI [9] [µM]	TGI [10]	TGI [11]	GI50 [2]	GI50 [6]	GI50 [7]	GI50 [9]	GI50 [10]	GI50 [1] [µM]	GI50 [4] [µM]	GI50 [8] [µM]	GI50 [11] [µM]
COc1ccc(N2C(=O)C3c4[nH]c5ccc([N+](=O)[O-])cc5c4C4CCC(C(C)(C)C)CC4C3C2=O)cc1 (stereo not drawn)	> 100	49.5 µM	> 100 µM	> 100	9.34 µM	> 100	33.8	> 100 µM	90.7	> 100 µM	> 100 µM									
CCOC(=O)c1sc2nc(SC)nc3c2c1N=CN3c1ccc(Br)cc1	> 100	> 100 µM	> 100 µM	> 100	> 100 µM	> 100	> 100	> 100 µM	> 100	> 100 µM	> 100 µM									
COC(=O)C1(Cc2ccccc2)Cc2cc3c(cc2C1=O)CCC3 (stereo not drawn)	79.1	> 100 µM	> 100 µM	> 100	> 100 µM	> 100	33	> 100 µM	> 100	> 100 µM	> 100 µM									
O=C1CC(O)c2c1csc2Br (stereo not drawn)	36.1	64.4 µM	96.2 µM	> 100	38.1 µM	> 100	> 100	> 100 µM	41	31.4 µM	59 µM									
O=c1[nH]cnc2c(C3OC(CO)C(O)C3O)c[nH]c12 (stereo not drawn)	> 100	> 100 µM	> 100 µM	> 100	> 100 µM	> 100	> 100	> 100 µM	> 100	> 100 µM	> 100 µM									
c1cc(-c2cnc(-c3ccc4c(c3)CCCO4)o2)ccn1	29.7	33.5 µM	42.3 µM	24.4	43.7 µM	37.4	25.4	25.2 µM	78.5	28.8 µM	31.7 µM									
O=c1[nH]c2nc3ccccc3c(=O)n2/c1=C/c1ccc(O)cc1	> 100	> 100 µM	> 100 µM	> 100	> 100 µM	> 100	> 100	> 100 µM	83.6	> 100 µM	> 100 µM									
Cc1cc(-c2nc3ccccc3s2)ccc1NS(=O)(=O)O	> 51.2	> 100 µM	> 100 µM	> 100	> 100 µM	> 100	> 100	> 100 µM	> 100	> 100 µM	> 100 µM									
C=CC(=O)c1ccc2c(c1)OCCOCCOCCOCCOCCO2	35.6	35.4 µM	36.3 µM	76.5	32.3 µM	> 100	> 100	> 91.6 µM	> 100	35.6 µM	92 µM									
O=c1oc2ccccc2c(O)c1C(c1cc(OCc2ccccc2)cc(OCc2ccccc2)c1)c1c(O)c2ccccc2oc1=O	77.5	35 µM	68.4 µM	21.1	> 52 µM	24	21.2	17 µM	> 47.3	38.2 µM	15.7 µM									
N#C/C(=C\NC(=S)Nc1ccc(S(=O)(=O)Nc2ccccn2)cc1)C(N)=O	> 100	> 100 µM	> 100 µM	> 100	> 100 µM	> 100	> 100	> 100 µM	> 100	> 100 µM	> 100 µM									
COC(=O)C1=C(C(=O)OC)C2OC1C1C2C2(C)C(C)=C(C)C1(C)S2=O (stereo not drawn)	> 100	25.5 µM	24.6 µM	45.7	10.6 µM	> 84.8	19.2	38.1 µM	26.8	29.6 µM	26.1 µM									
c1cc2nnc1SCCSCCSc1ccc(nn1)SCCSCCS2	> 100	> 100 µM	> 100 µM	> 100	> 100 µM	> 100	> 100	77.3 µM	> 100	> 100 µM	> 100 µM									
CCOC(=O)c1cc2c([N+](=O)[O-])c(NC(C)=O)ccc2s1	> 100	> 100 µM	> 100 µM	> 100	> 100 µM	> 100	> 100	94.1 µM	> 100	> 100 µM	> 100 µM									
N#CC1=C(N)OC2=C(CSc3ccccc32)C1c1ccc(Br)cc1 (stereo not drawn)	11.2	21.6 µM	19.3 µM	16.8	16.3 µM	29	25.7	21.7 µM	19.9	30.2 µM	21.8 µM									
Cc1cccc(N2C(=O)C3ON(C(C(N)=O)c4ccccc4)C(c4c5ccccc5c(Cl)c5ccccc45)C3C2=O)c1C (stereo not drawn)	16.5	17.5 µM	25.3 µM	17	13.5 µM	23	13.9	19.4 µM	15.6	18.1 µM	13.8 µM									
CCCCCCCCCC[C@@H](O)[C@H]1CC[C@H]([C@H]2CC[C@H]([C@H](O)CCCCCCCCCC[C@@H]3CC(CC(C)=O)C(=O)O3)O2)O1 (stereo partly drawn)	> 50	> 50 µM	> 50 µM	> 50	> 50 µM	> 50	> 21.5	> 50 µM	> 50	> 50 µM	> 50 µM	4.48 µM	2.22 µM	1.97 µM	7.12 µM		0.935	5.3	3.88	14.9
